Results: paper PMC3590450, “Analysis of substrate specificity and cyclin Y binding of PCTAIRE-1 kinase” (Cellular Signalling, 2012)
Several values for one entry are separate records, joined by “and”; a condition that tells them apart may be missing. Identical values can stand only once.

Key:
GST–PCTAIRE-1 [1] = target: T1, GST–PCTAIRE-1 (Homo sapiens, UniProt Q00536); experiment: In vitro phosphotransferase (kinase) assay of purified GST–PCTAIRE-1 on peptide substrates; type: biochemical; details: 1 μg GST–PCTAIRE-1, peptide 0-100 μM, mean ± SEM
T1 construct: made in house; host or cells: HEK293 cells, transient transfection with pEBG6P
Protocol: (§1) HEK293 cells were transfected with pEBG6P encoding GST-tagged human PCTAIRE-1 and harvested 36 h later as described above. GST–PCTAIRE-1 was isolated by batch-wise purification using Glutathione-Sepharose 4B. Briefly, lysates were incubated with equilibrated resin for 1 h at 4 °C, washed extensively with lysis buffer and eluted with 20 mM reduced glutathione in 50 mM Tris–HCl pH 8, 0.27 M sucrose, 0.1 mM EGTA and 1 mM DTT. Protein concentration was estimated by densitometry of Coomassie-stained gels using BSA standards. PCTAIRE-1 preparations were snap-frozen in N2(l) and stored at − 80 °C.
(§2) Fig. 1 Determination of PCTAIRE-1 optimal substrate motif. […] (B) GST–PCTAIRE-1 WT/KD was prepared as described in (A) and the optimal substrate motif determined by positional scanning peptide library screening (PSPL) as described in Materials and methods. (C) The activity of GST–PCTAIRE-1 (1 μg) and CDK2–cyclin A2 (10 ng) was assayed against a panel of CDK-tide derivatives (concentration fixed at 250 μM) based on the results of the degenerate library screen (modifications are underlined). Results are expressed as mean ± SEM and are representative of 3 independent experiments.
(§3) Purified rPCTAIRE-1, rCDK2–cyclin A2 or immune complexes isolated from cell/tissue lysates were assayed for phosphotransferase activity in a final assay volume of 50 μl containing 50 mM HEPES pH 7.5, 0.1 mM EGTA, 10 mM Mg(OAc)2, 0.1 mM [γ-^32P] ATP (300 CPM pmol^− 1), 1 mM DTT and the indicated concentrations of peptide substrate. Reactions were incubated at 30 °C and terminated by spotting onto P81 paper and immersion in 75 mM H3PO4. P81 filters were washed 3 × 10 min with H3PO4, rinsed with acetone, air-dried and incorporation of [γ-^32P] determined by Cherenkov counting. Results are expressed in U mg^− 1, where 1 U is defined as the incorporation of 1 nmol phosphate.min^− 1.
(§4) Fig. 2 Optimisation of PCTAIRE-1 substrate peptide. The in vitro phosphotransferase activity of 1 μg GST–PCTAIRE-1 (A) and 10 ng CDK2–cyclin A2 (B) was determined using a panel of CDK-tide derivatives (modifications from the parental peptide are underlined). Peptide conc. was varied over the range 0 > 100 μM and substrate saturation curves were fitted by non-linear regression to the Michaelis–Menten model. Fitted parameters [Km (μM) and Vmax (mU mg^− 1)] are listed in the adjoining table. (C) Based on the CDK-tide optimisation, derivatives of NSF-tide were synthesised (modifications underlined) and assayed for PCTAIRE-1 activity as described in (A + B). 100% GST–PCTAIRE-1 = 164 mU mg^− 1 and 100% CDK2–[…] = 940 U mg^− 1. (D) PCTAIRE-1 was immunoprecipitated from 2 mg of HEK293 lysate and kinase activity determined using 250 μM CDK-tide or the optimised substrate, PKS*PKARKKL (PCTAIRE-tide) as described in Materials and methods. Results are expressed as mean ± SEM and are representative of 3 independent experiments. […]

CDK2–cyclin A2 = target: T2, CDK2–cyclin A2 (Homo sapiens, UniProt P20248+P24941); experiment: In vitro phosphotransferase (kinase) assay of rCDK2–cyclin A2 on peptide substrates; type: biochemical; details: for CDK2-cyclin A2 Vmax: Fig. 2B table
T2 construct: made in house; host or cells: Escherichia coli
Protocol: PCTAIRE-1C-16 (sc-174) and PCTAIRE-1G6.1 (sc-53410) antibodies were from Santa Cruz Biotechnology. Cyclin Y antibody was from Proteintech. HA.11 (16B2) antibody was from Covance Research Products. The following antibodies were raised in sheep by the Division of Signal Transduction Therapy (DSTT, University of Dundee) against the indicated immunogens: PCTAIRE-1 (S552C, full length human 6×his-PCTAIRE-1), cyclin Y (S206D, full length human GST-cyclin Y). rCDK2–cyclin A2 was prepared by overexpression in Escherichia coli as previously described. Peptide substrates for kinase assays were synthesised by GL Biochem, and the peptide library was synthesised by Anaspec, Inc. [γ-^32P] ATP was from PerkinElmer. HRP-conjugated secondary antibodies were from Jackson Immunoresearch. Unless otherwise indicated all other reagents were from Sigma.
as §2, §3, §4

GST–PCTAIRE-1 [2] = experiment: In vitro phosphotransferase (kinase) assay of purified GST–PCTAIRE-1 on peptide substrates; type: biochemical, human; details: GST–PCTAIRE-1 from HEK293 vs CDK2–cyclin A2 from E. coli; data not shown
Protocol: as §1, §2, §3, §4

FLAG-WT–PCTAIRE-1 = FLAG-WT–PCTAIRE-1 (human, UniProt Q00536-1 1-496); experiment: cell-based or functional assay
[3] = CDK-tide derivatives, 10 ng CDK2–cyclin A2, peptide 0-100 μM, Michaelis–Menten fit, mean ± SEM
[4] = Fig. 2B, CDK-tide derivatives, 10 ng CDK2–cyclin A2, peptide 0-100 μM, Michaelis–Menten fit, 0.1 mM [γ-32P]ATP, 30 °C, mean ± SEM, representative of 3 independent experiments
[5] = Fig. 2A, CDK-tide derivatives, Michaelis–Menten fit, 0.1 mM [γ-32P]ATP, 30 °C, 1 U = 1 nmol phosphate min-1
[6] = Fig. 2A, CDK-tide derivatives, Michaelis–Menten non-linear regression, 0.1 mM [γ-32P]ATP, 30 °C, P81 paper, representative of 3 independent experiments

T1 sequence (Q00536 whole entry): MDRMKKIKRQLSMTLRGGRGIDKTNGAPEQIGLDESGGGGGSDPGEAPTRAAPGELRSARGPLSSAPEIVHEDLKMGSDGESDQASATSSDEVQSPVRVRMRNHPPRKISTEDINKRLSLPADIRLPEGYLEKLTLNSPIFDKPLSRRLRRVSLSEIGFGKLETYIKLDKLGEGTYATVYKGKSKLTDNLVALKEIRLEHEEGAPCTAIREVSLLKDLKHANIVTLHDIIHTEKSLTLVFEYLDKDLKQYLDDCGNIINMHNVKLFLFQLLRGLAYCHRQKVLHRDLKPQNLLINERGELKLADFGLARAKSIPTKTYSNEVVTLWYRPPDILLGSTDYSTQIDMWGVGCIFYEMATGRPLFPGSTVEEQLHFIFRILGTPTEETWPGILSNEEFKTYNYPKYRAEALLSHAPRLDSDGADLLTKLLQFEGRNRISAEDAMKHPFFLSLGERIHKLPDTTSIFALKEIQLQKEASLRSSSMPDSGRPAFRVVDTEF
Chain of FLAG-WT–PCTAIRE-1 (Q00536 whole entry): as above

FIKICSPDKMIGRRR [peptide around Ser569 of human NSF with three extra C-terminal Arg]
Km (GST–PCTAIRE-1 [1]; Fig. 2C, NSF-tide derivatives, Michaelis–Menten fit, 0.1 mM [γ-32P]ATP, 30 °C): 15 ± 6 µM | GST-PCTAIRE-1 Vmax (GST–PCTAIRE-1 [1]; Fig. 2C, NSF-tide derivatives, Michaelis–Menten fit): 34 ± 4 mU.mg^-1

PKSPKARKKL [optimal PCTAIRE-1 substrate peptide …, modified from the parental CDK substrate peptide]
CDK2-cyclin A2 Vmax (CDK2–cyclin A2; [3]): No fit | CDK2-cyclin A2 Km (CDK2–cyclin A2; [4]): No fit | GST-PCTAIRE-1 Vmax (GST–PCTAIRE-1 [1]; [5]): 550 ± 19 mU.mg^-1 | GST-PCTAIRE-1 Vmax (GST–PCTAIRE-1 [1]; Fig. 2A, CDK-tide derivatives, Michaelis–Menten fit, 0.1 mM [γ-32P]ATP, 30 °C, 1 U = 1 nmol phosphate min-1, listed as PKSPKARKKL): ~ 550 mU.mg^-1 | Km (GST–PCTAIRE-1 [1]; [6]): 4 ± 1 µM | Km (GST–PCTAIRE-1 [1]; Fig. 2A, CDK-tide derivatives, Michaelis–Menten non-linear regression, 0.1 mM [γ-32P]ATP, 30 °C, P81 paper, representative of 3 independent experiments, listed as PKSPKARKKL): ~4 µM

PKTPKKAKKL [generic CDK substrate peptide … derived from CDK phosphorylation sites of histone H1]
CDK2-cyclin A2 Vmax (CDK2–cyclin A2; [3]): 1100 ± 54 U.mg^-1 | Km (CDK2–cyclin A2; [4]): ~20 µM and 19 µM | CDK2–cyclin A2 Vmax as stated in text (CDK2–cyclin A2; running text on Fig. 2B, one range stated for TPKKR, SPKKA and TPKKA together): 1100–1500 mU mg^− 1 | GST-PCTAIRE-1 Vmax (GST–PCTAIRE-1 [1]; [5]): 71 ± 7 mU.mg^-1 | Km (GST–PCTAIRE-1 [1]; [6]): 23 ± 6 µM | Specific activity of PCTAIRE-1 towards the peptide, fold lower than that of CDK2–cyclin A2 (GST–PCTAIRE-1 [2]): > 2000 fold

B1: HA-cyclin Y (natural protein, human, UniProt Q8ND76-1 1-341, looked up)
chain: MGNTTSCCVSSSPKLRRNAHSRLESYRPDTDLSREDTGCNLQHISDRENIDDLNMEFNPSDHPRASTIFLSKSQTDVREKRKSLFINHHPPGQIARKYSSCSTIFLDDSTVSQPNLKYTIKCVALAIYYHIKNRDPDGRMLLDIFDENLHPLSKSEVPPDYDKHNPEQKQIYRFVRTLFSAAQLTAECAIVTLVYLERLLTYAEIDICPANWKRIVLGAILLASKVWDDQAVWNVDYCQILKDITVEDMNELERQFLELLQFNINVPSSVYAKYYFDLRSLAEANNLSFPLEPLSRERAHKLEAISRLCEDKYKDLRRSARKRSASADNLTLPRWSPAIIS
PCTAIRE-1 kinase activity of the immunoprecipitates towards 50 μM PCTAIRE-tide, with co-expressed cyclin Y against without (FLAG-WT–PCTAIRE-1): > 100 fold
